Experimental data: ChEMBL document CHEMBL1154627, “Structure-activity relationship studies of targeting ligands against breast cancer cells” (J Med Chem, 2009)
Calls of active or inactive are those of the source. The calls are words filed in the database; no cut-off is given here.

Columns and labels:
Mus musculus [1] = experiment: Ex vivo binding affinity to alpha3 integrin receptor in human MDA-MB-231 cells xenografted in iv dosed athymic nude mouse nu/nu by fluorescent imaging; assay type: functional, organism-based
[2] = Binding affinity to alpha3beta1 integrin receptor in human MDA-MB-231 cells assessed as inhibition of cell binding to immobilized LXY1 peptide by cell adherence assay; assay type: cell-based
[3] = molecular target: T1, Integrin alpha-3 (Homo sapiens) (UniProt P26006); experiment: Binding affinity to alpha3 integrin receptor in human MDA-MB-231 cells by fluorescent microscopy; assay type: cell-based
T1 sequence (whole entry): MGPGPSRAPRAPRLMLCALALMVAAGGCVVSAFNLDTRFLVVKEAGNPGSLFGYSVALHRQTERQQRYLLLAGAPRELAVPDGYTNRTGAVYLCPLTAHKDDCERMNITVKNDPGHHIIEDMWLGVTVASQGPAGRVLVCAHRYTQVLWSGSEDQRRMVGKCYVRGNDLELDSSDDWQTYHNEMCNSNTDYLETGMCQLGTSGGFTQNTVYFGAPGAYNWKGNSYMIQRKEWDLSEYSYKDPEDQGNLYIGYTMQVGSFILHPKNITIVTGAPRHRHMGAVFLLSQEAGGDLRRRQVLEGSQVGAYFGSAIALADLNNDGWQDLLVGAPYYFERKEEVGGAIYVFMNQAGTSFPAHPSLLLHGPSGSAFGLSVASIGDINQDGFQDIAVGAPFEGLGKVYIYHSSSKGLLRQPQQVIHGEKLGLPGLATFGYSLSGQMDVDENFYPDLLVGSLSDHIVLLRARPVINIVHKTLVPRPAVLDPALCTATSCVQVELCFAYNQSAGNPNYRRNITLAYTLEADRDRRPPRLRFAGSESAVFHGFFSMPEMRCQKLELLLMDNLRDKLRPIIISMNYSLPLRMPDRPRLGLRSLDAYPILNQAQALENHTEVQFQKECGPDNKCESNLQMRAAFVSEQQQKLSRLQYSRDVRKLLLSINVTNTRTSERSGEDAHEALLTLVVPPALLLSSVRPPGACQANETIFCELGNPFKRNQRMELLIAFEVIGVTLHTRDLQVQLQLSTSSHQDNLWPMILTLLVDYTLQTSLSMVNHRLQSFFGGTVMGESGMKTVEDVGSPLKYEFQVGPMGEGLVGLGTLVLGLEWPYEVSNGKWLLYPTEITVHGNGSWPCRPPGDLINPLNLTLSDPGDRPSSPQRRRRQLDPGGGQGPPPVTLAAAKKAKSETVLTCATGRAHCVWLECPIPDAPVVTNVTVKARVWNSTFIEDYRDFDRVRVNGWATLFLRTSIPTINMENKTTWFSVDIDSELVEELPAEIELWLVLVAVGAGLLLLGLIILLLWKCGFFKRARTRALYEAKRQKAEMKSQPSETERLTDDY

Mus musculus [4] = experiment: In vivo binding affinity to alpha3 integrin receptor in human MDA-MB-231 cells xenografted in iv dosed athymic nude mouse nu/nu by fluorescent imaging; assay type: functional, organism-based

- IC50 [2]: 2100 nM
- Activity [3]: Active
SMILES: NC(=O)C[C@@H]1NC(=O)[C@@H]2C[C@@H](O)CN2C(=O)CNC(=O)[C@H](c2cc(F)cc(F)c2)NC(=O)CNC(=O)[C@@H](CC(=O)O)NC(=O)[C@H](N)CSSC[C@H](C(N)=O)NC1=O
- Activity (Mus musculus [1]): Active
- Activity (Mus musculus [4]): Active
